{
  "source": "PubChem BioAssay AID743267",
  "about": "(Broad Institute, 2014)",
  "data": [
    {"tested_on": "human bronchial epithelial cells, CFTR corrector, plate reader", "assay": "CFTR ΔF508 corrector activity in bronchial cells, dose response, human bronchial epithelial cells, plate reader, cherry-pick, two tests (AID 743267)", "conditions": "measured here: test 2 replicate run", "units": {"AC50": "µM"}, "values": [
      {"smiles": "Clc1ccc(CSc2nncn2-c2ccc3c(c2)OCCO3)cc1", "AC50": 9.62},
      {"smiles": "CCCC(=O)Nc1nc2ccc(NC(=O)c3c(F)c(F)c(OC)c(F)c3F)cc2s1", "AC50": 1.13},
      {"smiles": "O=C1/C(=C\\c2ccc(O)cc2)SC(=S)N1Cc1ccccc1", "AC50": 20.5},
      {"smiles": "O=Cc1ccccc1OCc1ccc2c(c1)OCO2", "AC50": 14.5},
      {"smiles": "O=C(NN=C1CCCC1)c1[nH]c2ccc(Cl)cc2c1-c1ccccc1", "AC50": 6.72},
      {"smiles": "Cc1cc2nnc(SCC(=O)NCc3ccco3)n2c2ccccc12", "AC50": 6.63},
      {"smiles": "Cc1ccc(C(=O)NC(=S)NNC(=O)c2ccccc2O)cc1", "AC50": "> 50"},
      {"smiles": "CCOC(=O)[C@]12CCCC=C1N(Cc1cccc3ccccc13)C(=O)[C@H](CC(=O)NCc1cccc(C(F)(F)F)c1)C2", "AC50": 30},
      {"smiles": "Cc1cccc(C(=O)N(Cc2ccco2)c2c(N)n(Cc3ccccc3)c(=O)[nH]c2=O)c1", "AC50": "> 50"},
      {"smiles": "Cc1cc2c(cc1C)C(c1ccccc1OC(C)C)CC(=O)N2", "note": "(configuration not stated)", "AC50": 1.85},
      {"smiles": "COc1ccccc1N=C1SC(C(=O)Nc2cccc(Cl)c2Cl)C(N)=C1C(N)=O", "note": "(configuration not stated)", "AC50": 6.08},
      {"smiles": "Cc1nn(C)c(C)c1/C=C/C(=O)O", "AC50": "> 50"},
      {"smiles": "Cc1ccc(C)c(C2NC(=O)c3ccccc3N2)c1", "note": "(configuration not stated)", "AC50": 2.91},
      {"smiles": "CCOC(=O)c1ccc(Nc2sc(C(=O)c3cccc([N+](=O)[O-])c3)c(N)c2C#N)cc1", "AC50": 1.84},
      {"smiles": "Cc1ccc(S(=O)(=O)N2C[C@H]3[C@H]4C(=O)N(C)C(=O)[C@H]4CC(=O)[C@H]3[C@@H]2c2ccccc2F)cc1", "AC50": 37.1},
      {"smiles": "COc1ccc(-c2csc(NC(=S)NC(=O)/C=C/c3ccco3)n2)cc1OC", "AC50": 2.19},
      {"smiles": "COc1cccc(C2=CC(c3ccccc3)n3nnnc3N2)c1", "note": "(configuration not stated)", "AC50": 3.85},
      {"smiles": "O=C(CSC1=NNC(c2ccccn2)S1)Nc1ccccc1", "note": "(configuration not stated)", "AC50": "> 50"},
      {"smiles": "COC(=O)c1ccc(C(=O)NC2CCCc3c2cnn3-c2ccc(C)c(C)c2)cc1", "note": "(configuration not stated)", "AC50": 1.02},
      {"smiles": "C/C(=N\\NC(=O)c1cc(-c2cccs2)nc2ccccc12)c1ccccn1", "AC50": 2.45},
      {"smiles": "COc1cccc(N2CCN(C(=O)c3ccc(CS(=O)c4ccc(C)cc4)o3)CC2)c1", "note": "(configuration not stated)", "AC50": 0.539},
      {"smiles": "Cc1ccc(N(C)S(=O)(=O)c2ccc(-c3cnc(C4CC4)o3)cc2)cc1", "AC50": 1.17},
      {"smiles": "O=c1[nH]c(/C=C/c2ccccc2F)nc2ccccc12", "AC50": 2.69},
      {"smiles": "COc1cc(/C=C2/SC(=Nc3ccc(O)cc3)NC2=O)cc(OC)c1O", "AC50": 8.92},
      {"smiles": "Cc1cc(/C=N/n2c(COc3ccccc3C)nc3ccccc3c2=O)c(O)c([N+](=O)[O-])c1", "AC50": 5.53},
      {"smiles": "Cc1ccc(N2CC(C(=O)N(C)CC(=O)Nc3ccc(Cl)c(C(F)(F)F)c3)CC2=O)cc1", "note": "(configuration not stated)", "AC50": 33.3},
      {"smiles": "NS(=O)(=O)c1ccc(Cl)c(S(N)(=O)=O)c1", "AC50": 1.16},
      {"smiles": "O=C(Nc1cccc(C2=NCCN2)c1)Nc1cccc(C2=NCCN2)c1", "AC50": 20.7},
      {"smiles": "COc1cc([C@@H]2c3cc4c(cc3[C@@H](OC)[C@H]3COC(=O)[C@H]23)OCO4)cc(OC)c1O", "AC50": 2.52},
      {"smiles": "COc1cc(C(=O)Nc2ccccc2C(=O)Nc2ccccn2)cc(OC)c1OC", "AC50": 4.59},
      {"smiles": "O=C(N/N=C/c1ccccc1OC(F)F)c1cc(-c2ccncc2)nc2ccccc12", "AC50": 0.798},
      {"smiles": "Nc1ccn([C@@H]2O[C@H](CO)[C@@H](O)[C@@H]2O)c(=O)n1", "AC50": 0.541},
      {"smiles": "C=CCn1c(SCC(=O)N(C)C2CCS(=O)(=O)C2)nc2ccccc2c1=O", "note": "(configuration not stated)", "AC50": 26.7},
      {"smiles": "C=C1C(=O)O[C@@H]2C[C@@H](C)[C@@H]3C=CC(=O)[C@@]3(C)[C@@H](O)[C@H]12", "AC50": 0.989},
      {"smiles": "COc1cc(C(=O)c2cocc2C(=O)c2ccc3c(c2)OCO3)cc(OC)c1OC", "AC50": 0.451},
      {"smiles": "Cc1ccc(NC(=O)c2ccc(Cl)c(S(=O)(=O)Nc3c(C)n(C)n(-c4ccccc4)c3=O)c2)cc1Cl", "AC50": 30.3},
      {"smiles": "O=C(NCCCN1CCOCC1)c1cc(S(=O)(=O)N2CCOCC2)c(Cl)cc1Cl", "AC50": "> 50"},
      {"smiles": "CCCOc1cc(N(CC)CC)ccc1/C=C(/C#N)c1nc2ccc(C)cc2[nH]1", "AC50": 6.15},
      {"smiles": "CCN(CC)c1ccc(/C=C(/C#N)c2nc3ccc(C)cc3[nH]2)c(OC(C)C)c1", "AC50": 9.34},
      {"smiles": "Cc1noc(C)c1COc1ccc(C(=O)NNC(=O)c2ccccc2)cc1", "AC50": 6.4},
      {"smiles": "CC(C)(C)c1cc(C(=O)NN)n(Cc2ccc(Cl)cc2Cl)n1", "AC50": "> 50"},
      {"smiles": "O=C(CCC(=O)N1CCOc2ccc(Cl)cc21)N1CCN(c2ccccn2)CC1", "AC50": "> 50"},
      {"smiles": "c1ccc2nc(N3CCNCC3)ccc2c1", "AC50": "> 50"},
      {"smiles": "COCCNC(=O)NC12CC3(C)CC(C)(CC(C)(C3)C1)C2", "AC50": "> 50"},
      {"smiles": "O=[N+]([O-])c1ccc(/C=C/C2=NN(c3ccccc3)C(c3ccco3)C2)o1", "note": "(configuration not stated)", "AC50": 18.1},
      {"smiles": "N#CC(C#N)=C1C=C2C=C(N3CCOCC3)CCC2CC1", "note": "(configuration not stated)", "AC50": 28.2},
      {"smiles": "NS(=O)(=O)c1cc(Cl)c(Cl)c(S(N)(=O)=O)c1", "AC50": 0.0468},
      {"smiles": "COc1ccc(S(=O)(=O)Nc2cc3c(cc2C(C)=O)OCO3)cc1", "AC50": 13.9},
      {"smiles": "Cc1cc(C(=O)N2CC=C(c3ccccc3)CC2)c2ccccc2n1", "AC50": 0.66},
      {"smiles": "O=C(c1cccc(S(=O)(=O)N2CCOCC2)c1)N1CCCC(C(F)(F)F)C1", "note": "(configuration not stated)", "AC50": 39.2},
      {"smiles": "COc1ccc(C(=O)c2cc([N+](=O)[O-])ccc2N2CCN(C)CC2)cc1", "AC50": 3.74},
      {"smiles": "COc1ccc(Nc2nc(-c3sc(C)nc3C)cs2)cc1", "AC50": 0.272}
    ]}
  ]
}
